According to patent US20210038559A1, “CANNABINOIDS AND DERIVATIVES FOR PROMOTING IMMUNOGENICITY OF TUMOR AND INFECTED CELLS” (priority 2018, published 2021):

What follows are molecules tested on MHC-I expression by COLO 205 cells (assay: cells). Details: not given.
Assay type: cell-based, human
Experimental: A panel of synthetic cannabinoids (Cayman Chemical, #9002891) was tested for MHC class I-inducing capability in COLO 205 cells as described above. COLO 205 cells were treated with the compounds at a concentration of 35 μM and evaluated for cell surface MHC class I expression after 48 hours. Cells were harvested, stained with MHC-I mAb W6/32 (Thermo Fisher). MHC-I expression was determined by flow cytometry.

Row | Compound | Induction Fold [Fold]
1 | O=C(Oc1cccc2cccnc12)c1cn(CC2CCCCC2)c2ccccc12 [Example 38, 1-(cyclohexylmethyl)-8-quinolinyl ester-1H-indole-3-carboxylic acid] | 3.15
2 | O=C(c1cccc2ccccc12)c1cn(CCN2CCOCC2)c2ccccc12 [Example 57, [1-[2-(4-morpholinyl)ethyl]-1H-indol-3-yl]-1-naphthalenyl-methanone] | 2.89
3 | CCCCCn1cc(C(=O)c2cccc3ccccc23)cc1-c1ccccc1C [Example 60, [5-(2-methylphenyl)-1-pentyl-1H-pyrrol-3-yl]-1-naphthalenyl-methanone] | 2.85
4 | CCCn1cc(C(=O)c2cccc3ccccc23)c2ccccc21 [Example 65, 1-naphthalenyl(1-propyl-1H-indol-3-yl)-methanone] | 2.77
5 | CCCCCn1ccc(C(=O)c2cccc3ccccc23)c1 [Example 66, 1-naphthalenyl(1-pentyl-1H-pyrrol-3-yl)-methanone] | 2.75
6 | CCCCCn1cc(C(=O)c2cccc3ccccc23)cc1-c1ccccc1 [Example 77, 1-naphthalenyl(1-pentyl-5-phenyl-1H-pyrrol-3-yl)-methanone] | 2.60

Same assay, conditions: Homo sapiens, COLO 205, 48 h, MHC-I expression, COLO 205 cells, compounds at 35 μM, 48 hours, flow cytometry (W6/32); read-out: Induction Fold

Row | Compound | fold induction at 35 µM
7 | CCCCCn1cc(C(=O)c2ccccc2I)c2ccccc21 [Example 36, (2-iodophenyl)(1-pentyl-1H-indol-3-yl)-methanone] | 3.3
8 | CCC(Cl)CCn1cc(C(=O)C2C(C)(C)C2(C)C)c2ccccc21 (stereo not shown) [Example 37] | 3.3
9 | CCCCCCC(C)(C)c1ccc([C@@H]2CCC[C@H](O)C2)c(O)c1 [Example 39, 2[(1R,3S)-3-hydroxycyclohexyl]-5-(2-methyloctan-2-yl)phenol] | 3.14
10 | O=C(c1cccc2ccccc12)c1nc2ccccc2n1CCCCCF [Example 40, (1-(5-fluoropentyl)-1H-benzo[d]imidazol-2-yl)(naphthalen-1-yl)methanone] | 3.14
11 | CC(C)Cn1cc(C(=O)c2cccc3ccccc23)c2ccccc21 [Example 41, (1-isobutyl-1H-indol-3-yl)(naphthalen-1-yl)methanone] | 3.11
12 | COc1cccc(CC(=O)c2cn(CCC3CCCCC3)c3ccccc23)c1 [Example 42, 1-(1-(2-cyclohexylethyl)-1H-indol-3-yl)-2-(3-methoxyphenyl)ethanone] | 3.07
13 | COc1cccc2c(C(=O)N[C@@H]3C(C)(C)[C@@H]4CC[C@@]3(C)C4)cn(CCN3CCOCC3)c12 [Example 43, 7-methoxy-1-[2-(4-morpholinyl)ethyl]-N-[(1S,2 S,4R)-1,3,3-trimethylbicyclo[2.2.1]hept-2-yl]-1H-indole-3-carboxamide] | 3.06
14 | COc1ccc(CC(=O)c2cn(CCC3CCCCC3)c3ccccc23)cc1 [Example 44, 1-(1-(2-cyclohexylethyl)-1H-indol-3-yl)-2-(4-methoxyphenyl)ethanone] | 3.03
15 | CCC(F)CCn1cc(C(=O)Oc2cccc3cccnc23)c2ccccc21 (stereo not shown) [Example 45, quinolin-8-yl 1-(3-fluoropentyl)-1H-indole-3-carboxylate] | 3.02
16 | O=C(Oc1ccc2cccnc2c1)c1cn(CC2CCCCC2)c2ccccc12 [Example 47, quinolin-7-yl 1-(cyclohexylmethyl)-1H-indole-3-carboxylate] | 3.01
17 | CCC(CC)n1cc(C(=O)c2cccc3ccccc23)c2ccccc21 [Example 48, naphthalen-1-yl(1-(pentan-3-yl)-1H-indol-3-yl)methanone] | 3
18 | CC(C)(C)Cn1cc(C(=O)c2cccc3ccccc23)c2ccccc21 [Example 49, naphthalen-1-yl(1-neopentyl-1H-indol-3-yl)-methanone] | 3
19 | CCCCCn1cc(C(=O)c2cccc3cccc(Cl)c23)c2ccccc21 [Example 50, (8-chloronaphthalen-1-yl)(1-pentyl-1H-indol-3-yl)methanone] | 3
20 | CC1(C)C(C(=O)c2cn(CCCCCF)c3ccccc23)C1(C)C [Example 51, (1-(5-fluoropentyl)-1H-indol-3-yl)(2,2,3,3-tetramethylcyclopropyl)methanone] | 2.99
21 | CCCCCn1cc(C(=O)Oc2cncc3ccccc23)c2ccccc21 [Example 52, isoquinolin-4-yl 1-pentyl-1H-indole-3-carboxylate] | 2.98
22 | CCCCCn1cc(C(=O)Oc2ccc3cnccc3c2)c2ccccc21 [Example 53, isoquinolin-6-yl 1-pentyl-1H-indole-3-carboxylate] | 2.97
23 | O=C(c1ccccc1I)c1cn(CCCCCF)c2ccccc12 [Example 54, [1-(5-fluoropentyl)-1H-indol-3-yl](2-iodophenyl)-methanone] | 2.93
24 | N#CCCCCn1cc(C(=O)c2cccc3ccccc23)c2ccccc21 [Example 55, 3-(1-naphthalenylcarbonyl)-1H-Indole-1-pentanenitrile] | 2.92

Row | Compound | fold induction at 35 µM
25 | CCCCCn1cc(C(=O)c2cccc(OC)c2)c2ccccc21 [Example 56, (3-methoxyphenyl)(1-pentyl-1H-indol-3-yl)methanone] | 2.9
26 | CCC(C)Cn1cc(C(=O)c2cccc3ccccc23)c2ccccc21 (stereo not shown) [Example 58, N-(2-methylbutyl)-3-(1-naphthoyl)-indole] | 2.86
27 | CCCCCn1cc(C(=O)Cc2ccc(OC)cc2)c2ccccc21 [Example 59, 2-(4-methoxyphenyl)-1-(1-pentyl-1H-indol-3-yl)-ethanone] | 2.85
28 | CC1(C)C(C(=O)c2cn(Cc3ccc(F)cc3)c3ccccc23)C1(C)C [Example 62, (1-(4-fluorobenzyl)-1H-indol-3-yl)(2,2,3,3-tetramethylcyclopropyl)methanone] | 2.79
29 | CCCCCn1cc(C(=O)Cc2ccc(Cl)cc2)c2ccccc21 [Example 64, 2-(4-chlorophenyl)-1-(1-pentyl-1H-indol-3-yl)-ethanone] | 2.77
30 | CC(C)[C@H](NC(=O)c1nn(CC2CCCCC2)c2ccccc12)C(N)=O [Example 67, N-[(1S)-1-(aminocarbonyl)-2-methylpropyl]-1-(cyclohexylmethyl)-1H-indazole-3-carboxamide] | 2.75
31 | CN1CCCCC1Cn1cc(C(=O)C23CC4CC(CC(C4)C2)C3)c2ccccc21 (stereo not shown) [Example 68, [1-[(1-methyl-2-piperidinyl)methyl]-1H-indol-3-yl]tricyclo[3.3.1.13,7]dec-1-yl-methanone] | 2.72
32 | CCCCn1cc(C(=O)c2ccc(C)c3ccccc23)c2ccccc21 [Example 69, (1-butyl-1H-indol-3-yl)(4-methylnaphthalen-1-yl)methanone] | 2.71
33 | CC(C)C(C)n1cc(C(=O)c2cccc3ccccc23)c2ccccc21 (stereo not shown) [Example 70, (1-(3-methylbutan-2-yl)-1H-indol-3-yl)(naphthalen-1-yl)methanone] | 2.7
34 | COc1ccccc1CC(=O)c1cn(CCC2CCCCC2)c2ccccc12 [Example 74, 1-(1-(2-cyclohexylethyl)-1H-indol-3-yl)-2-(2-methoxyphenyl)ethanone] | 2.65
35 | CCCCCn1cc(C(=O)c2c(Cl)ccc3ccccc23)c2ccccc21 [Example 75, (2-chloronaphthalen-1-yl)(1-pentyl-1H-indol-3-yl)methanone] | 2.65
36 | CCCCCn1nc(C(=O)NC(C(N)=O)C(C)(C)C)c2ccccc21 (stereo not shown) [Example 76, N-[1-(aminocarbonyl)-2,2-dimethylpropyl]-1-pentyl-1H-indazole-3-carboxamide] | 2.61
37 | CCCc1ccc(C(=O)c2cn(CCC)c3ccccc23)c2ccccc12 [Example 78, (1-propyl-1H-indol-3-yl)(4-propyl-1-naphthalenyl)-methanone] | 2.58
38 | CCCCCn1cc(C(=O)Cc2ccccc2)c2ccccc21 [Example 80, 1-(1-pentyl-1H-indol-3-yl)-2-phenyl-ethanone] | 2.57
39 | CCCCCn1cc(C(=O)c2cccc3cccc(C)c23)c2ccccc21 [Example 81, (8-methylnaphthalen-1-yl)(1-pentyl-1H-indol-3-yl)methanone] | 2.57
40 | CCCC(F)Cn1cc(C(=O)Oc2cccc3cccnc23)c2ccccc21 (stereo not shown) [Example 83, quinolin-8-yl 1-(2-fluoropentyl)-1H-indole-3-carboxylate] | 2.54
41 | COC(=O)[C@@H](NC(=O)c1nn(CCCC(C)F)c2ccccc12)C(C)(C)C (stereo partly drawn) [Example 84, methyl (2S)-2-(1-(4-fluoropentyl)-1H-indazole-3-carboxamido)-3,3-dimethylbutanoate] | 2.53

Same assay, conditions: MHC-I expression, COLO 205 cells, compounds at 35 μM, 48 hours, flow cytometry (W6/32)

Row | Compound | Induction Fold [Fold]
42 | COC(=O)[C@@H](NC(=O)c1cn(CC2CCCCC2)c2ccccc12)C(C)(C)C [Example 31, N-[[1-(cyclohexylmethyl)-1H-indol-3-yl]carbonyl]-3-methyl-1-valine, methyl ester] | 3.35
43 | COC(=O)[C@@H](NC(=O)c1nn(Cc2ccc(F)cc2)c2ccccc12)C(C)(C)C [Example 46, N-[[1-[(4-fluorophenyl)methyl]-1H-indazol-3-yl]carbonyl]-3-methyl-1-valine, methyl ester] | 3.02
44 | CCCCCCC(C)(C)C1=CC(=O)C([C@H]2CCC[C@@H](O)C2)=CC1=O [Example 61, 3′R-hydroxy-4-(2-methyloctan-2-yl)-[1,1′S-bi(cyclohexane)]-3,6-diene-2,5-dione] | 2.85
45 | CCCCCn1cc(C(=O)c2cccc3ccccc23)c2ccccc21 [Example 71, (1-pentyl-1H-indol-3-yl)-1-naphthalenyl-methanone] | 2.69
46 | O=C(c1cccc2ccccc12)c1cn(CCCCCF)c2ccccc12 [Example 79, [1-(5-fluoropentyl)-1H-indol-3-yl]-1-naphthalenyl-methanone] | 2.57
